Laboratory results as given in ChEMBL document CHEMBL3045925 (Med Chem Res, 2013).
Converted amounts (≈) assume the structure as drawn. The source made the active and inactive calls. No cut-off for these calls is given here.

Columns and labels:
[1] = tested on: Radical scavenging activity; assay: Antioxidant activity assessed as DPPH free radical scavenging activity at 500 ug/mL after 30 min by spectrophotometric analysis; format: functional
[2] = tested on: Radical scavenging activity; assay: Antioxidant activity assessed as DPPH free radical scavenging activity at 1000 ug/mL after 30 min by spectrophotometric analysis; format: functional
[3] = Antioxidant activity assessed as reduction of Cu2+ to Cu+ at 125 to 1000 ug/mL after 30 min by spectrophotometric analysis; format: functional
[4] = tested on: Radical scavenging activity; assay: Antioxidant activity assessed as DPPH free radical scavenging activity at 250 ug/mL after 30 min by spectrophotometric analysis; format: functional
[5] = tested on: Radical scavenging activity; assay: Antioxidant activity assessed as DPPH free radical scavenging activity at 125 ug/mL after 30 min by spectrophotometric analysis; format: functional
[6] = Antioxidant activity assessed as reduction of Fe3+ to Fe2+ measured Fe2+ equivalent per gram dry mass after 4 min by spectrophotometric analysis; format: functional
Klebsiella pneumoniae [7] = assay: Antibacterial activity against Klebsiella pneumoniae ESBL 3894 clinical isolate assessed as growth inhibition after 24 hr by two-fold serial dilution method; format: functional; details: ESBL 3894, 24 h
Salmonella typhimurium = assay: Antibacterial activity against Salmonella enterica subsp. enterica serovar Typhimurium MTCC 1251 assessed as growth inhibition after 24 hr by two-fold serial dilution method; format: functional; details: MTCC 1251, 24 h
Staphylococcus aureus [8] = assay: Antibacterial activity against Staphylococcus aureus MTCC 96 assessed as growth inhibition after 24 hr by two-fold serial dilution method; format: functional; details: MTCC 96, 24 h
Klebsiella pneumoniae [9] = assay: Antibacterial activity against Klebsiella pneumoniae ESBL 75799 clinical isolate assessed as growth inhibition after 24 hr by two-fold serial dilution method; format: functional; details: ESBL 75799, 24 h
Pseudomonas aeruginosa = assay: Antibacterial activity against Pseudomonas aeruginosa MTCC 741 assessed as growth inhibition after 24 hr by two-fold serial dilution method; format: functional; details: MTCC 741, 24 h
Staphylococcus aureus [10] = assay: Antibacterial activity against methicillin-resistant Staphylococcus aureus clinical isolate assessed as growth inhibition after 24 hr by two-fold serial dilution method; format: functional
Shigella flexneri = assay: Antibacterial activity against Shigella flexneri MTCC 1457 assessed as growth inhibition after 24 hr by two-fold serial dilution method; format: functional; details: MTCC 1457, 24 h
[11] = tested on: Staphylococcus epidermidis; assay: Antibacterial activity against Staphylococcus epidermidis MTCC 3615 assessed as growth inhibition after 24 hr by two-fold serial dilution method; format: functional; details: MTCC 3615, 24 h
Bacillus subtilis = assay: Antibacterial activity against Bacillus subtilis MTCC 441 assessed as growth inhibition after 24 hr by two-fold serial dilution method; format: functional; details: MTCC 441, 24 h
Klebsiella pneumoniae [12] = assay: Antibacterial activity against Klebsiella pneumoniae ESBL 3967 clinical isolate assessed as growth inhibition after 24 hr by two-fold serial dilution method; format: functional; details: ESBL 3967, 24 h
Escherichia coli [13] = assay: Antibacterial activity against Escherichia coli ESBL 3904 clinical isolate assessed as growth inhibition after 24 hr by two-fold serial dilution method; format: functional; details: ESBL 3904, 24 h
Micrococcus luteus = assay: Antibacterial activity against Micrococcus luteus assessed as growth inhibition after 24 hr by two-fold serial dilution method; format: functional
Klebsiella pneumoniae [14] = assay: Antibacterial activity against Klebsiella pneumoniae ESBL 3971 clinical isolate assessed as growth inhibition after 24 hr by two-fold serial dilution method; format: functional; details: ESBL 3971, 24 h
Escherichia coli [15] = assay: Antibacterial activity against Escherichia coli ESBL 3984 clinical isolate assessed as growth inhibition after 24 hr by two-fold serial dilution method; format: functional; details: ESBL 3984, 24 h
[16] = tested on: Salmonella enterica subsp. enterica serovar Paratyphi B; assay: Antibacterial activity against Salmonella enterica subsp. enterica serovar Paratyphi B assessed as growth inhibition after 24 hr by two-fold serial dilution method; format: functional
Botrytis cinerea = assay: Antifungal activity against Botryotinia fuckeliana assessed as growth inhibition after 48 to 72 hr by two-fold serial dilution method; format: functional
Trichophyton rubrum = assay: Antifungal activity against Trichophyton rubrum 57/01 assessed as growth inhibition after 48 to 72 hr by two-fold serial dilution method; format: functional
Malassezia pachydermatis = assay: Antifungal activity against Malassezia pachydermatis assessed as growth inhibition after 48 to 72 hr by two-fold serial dilution method; format: functional
Scopulariopsis = assay: Antifungal activity against Scopulariopsis sp. 101/01 assessed as growth inhibition after 48 to 72 hr by two-fold serial dilution method; format: functional
Aspergillus flavus = assay: Antifungal activity against Aspergillus flavus assessed as growth inhibition after 48 to 72 hr by two-fold serial dilution method; format: functional
Candida albicans = assay: Antifungal activity against Candida albicans MTCC 227 assessed as growth inhibition after 48 to 72 hr by two-fold serial dilution method; format: functional
[17] = tested on: Trichophyton mentagrophytes; assay: Antifungal activity against Trichophyton mentagrophytes 66/01 assessed as growth inhibition after 48 to 72 hr by two-fold serial dilution method; format: functional
COLO 320 [18] = assay: Cytotoxicity against Homo sapiens (human) COLO320 cells by MTT assay
[19] = Antioxidant activity assessed as reduction of Cu2+ to Cu+ after 30 min by spectrophotometric analysis; format: functional
COLO 320 [20] = assay: Cytotoxicity against Homo sapiens (human) COLO320 cells at 100 ug/mL by MTT assay; format: functional
COLO 320 [21] = assay: Cytotoxicity against Homo sapiens (human) COLO320 cells at 200 ug/mL by MTT assay; format: functional
COLO 320 [22] = assay: Cytotoxicity against Homo sapiens (human) COLO320 cells at 25 ug/mL by MTT assay; format: functional
COLO 320 [23] = assay: Cytotoxicity against Homo sapiens (human) COLO320 cells at 50 ug/mL by MTT assay; format: functional
COLO 320 [24] = assay: Cytotoxicity against Homo sapiens (human) COLO320 cells at 10 ug/mL by MTT assay; format: functional

Question: What does the source list for `Cc1cc(C(C)(C)C)c(O)c(C(C)(C)C)c1`?
Answer: Activity [1]: 80.9%; Activity [2]: 90.1%; Activity [3]: Active; Activity [4]: 71.7%; Activity [5]: 60.9%; Activity [6]: 2.21 mMequiv

Question: What does the source list for `CN[C@@H]1[C@H](O[C@H]2[C@H](O[C@H]3[C@H](O)[C@@H](O)[C@H](N=C(N)N)[C@@H](O)[C@@H]3N=C(N)N)O[C@@H](C)[C@]2(O)C=O)O[C@@H](CO)[C@H](O)[C@H]1O` [STREPTOMYCIN]?
Answer: MIC (Klebsiella pneumoniae [7]): 6.25 µg/mL (≈ 10.7 µM); MIC (Salmonella typhimurium): 30 µg/mL (≈ 51.6 µM); MIC (Staphylococcus aureus [8]): 6.25 µg/mL (≈ 10.7 µM); MIC (Klebsiella pneumoniae [9]): 25 µg/mL (≈ 43 µM); MIC (Pseudomonas aeruginosa): 25 µg/mL (≈ 43 µM); MIC (Staphylococcus aureus [10]): 6.25 µg/mL (≈ 10.7 µM); MIC (Shigella flexneri): 6.25 µg/mL (≈ 10.7 µM); MIC [11]: 25 µg/mL (≈ 43 µM); MIC (Bacillus subtilis): 25 µg/mL (≈ 43 µM); MIC (Klebsiella pneumoniae [12]): 25 µg/mL (≈ 43 µM); MIC (Escherichia coli [13]): 25 µg/mL (≈ 43 µM); MIC (Micrococcus luteus): 6.25 µg/mL (≈ 10.7 µM); MIC (Klebsiella pneumoniae [14]): 6.25 µg/mL (≈ 10.7 µM); MIC (Escherichia coli [15]): 25 µg/mL (≈ 43 µM); MIC [16]: inactive

Question: Which results are given for `CC(=O)N1CCN(c2ccc(OCC3COC(Cn4ccnc4)(c4ccc(Cl)cc4Cl)O3)cc2)CC1` (configuration not stated) [KETOCONAZOLE]?
Answer: MIC (Botrytis cinerea): < 12.5 µg/mL; MIC (Trichophyton rubrum): < 12.5 µg/mL; MIC (Malassezia pachydermatis): 12.5 µg/mL (≈ 23.5 µM); MIC (Scopulariopsis): < 12.5 µg/mL; MIC (Aspergillus flavus): < 12.5 µg/mL; MIC (Candida albicans): 25 µg/mL (≈ 47 µM); MIC [17]: < 12.5 µg/mL

Question: With `COc1cc(/C=C/C(=O)NCCCCNC(=O)/C=C/c2ccc(O)c(OC)c2)ccc1O` [TERRESTRIBISAMIDE] as the molecule, how does the Activity [1] read?
Answer: 84.6%

Question: And the MIC (Klebsiella pneumoniae [7])?
Answer: > 200 µg/mL

Question: What about the MIC (Botrytis cinerea) of the same molecule?
Answer: > 200 µg/mL

Question: What about the IC50 (COLO 320 [18]) of the same molecule?
Answer: 50 µg/mL (≈ 114 µM)

Question: And the MIC (Salmonella typhimurium)?
Answer: > 200 µg/mL

Question: What about the MIC (Staphylococcus aureus [8]) of the same molecule?
Answer: > 200 µg/mL

Question: And the Activity [2]?
Answer: 88.3%

Question: And the MIC (Trichophyton rubrum)?
Answer: > 200 µg/mL

Question: And the MIC (Klebsiella pneumoniae [9])?
Answer: > 200 µg/mL

Question: And the MIC (Pseudomonas aeruginosa)?
Answer: > 200 µg/mL

Question: And the Activity [19]?
Answer: Dose-dependent effect

Question: And the MIC (Staphylococcus aureus [10])?
Answer: > 200 µg/mL

Question: What about the MIC (Shigella flexneri) of the same molecule?
Answer: > 200 µg/mL

Question: What about the MIC [11] of the same molecule?
Answer: 200 µg/mL (≈ 454 µM)

Question: What about the MIC (Bacillus subtilis) of the same molecule?
Answer: 200 µg/mL (≈ 454 µM)

Question: And the MIC (Malassezia pachydermatis)?
Answer: 200 µg/mL (≈ 454 µM)

Question: And the Activity (COLO 320 [20])?
Answer: 64.827%

Question: What about the Activity (COLO 320 [21]) of the same molecule?
Answer: 83.218%

Question: And the MIC (Klebsiella pneumoniae [12])?
Answer: > 200 µg/mL

Question: And the MIC (Escherichia coli [13])?
Answer: 200 µg/mL (≈ 454 µM)

Question: What about the MIC (Micrococcus luteus) of the same molecule?
Answer: 200 µg/mL (≈ 454 µM)

Question: What about the MIC (Klebsiella pneumoniae [14]) of the same molecule?
Answer: > 200 µg/mL

Question: What about the Activity [4] of the same molecule?
Answer: 68.3%

Question: And the MIC (Escherichia coli [15])?
Answer: 200 µg/mL (≈ 454 µM)

Question: And the Activity [5]?
Answer: 40.2%

Question: And the Activity (COLO 320 [22])?
Answer: 21.609%

Question: What about the MIC (Scopulariopsis) of the same molecule?
Answer: > 200 µg/mL

Question: And the MIC [16]?
Answer: > 200 µg/mL

Question: What about the Activity (COLO 320 [23]) of the same molecule?
Answer: 51.195%

Question: And the Activity (COLO 320 [24])?
Answer: 9.655%

Question: And the MIC (Aspergillus flavus)?
Answer: > 200 µg/mL

Question: And the MIC (Candida albicans)?
Answer: 200 µg/mL (≈ 454 µM)

Question: And the MIC [17]?
Answer: > 200 µg/mL

Question: What about the Activity [6] of the same molecule?
Answer: 0.808 mMequiv
